Laboratory results from patent US20240174637A1, “DEGRADERS OF GRK2 AND USES THEREOF” (Sonata Therapeutics, Inc., priority 2021, published 2024).

Legend:
GRK2 = target: T1, GRK2 (Homo sapiens, UniProt P25098); assay: ADPGlo GRK2 Inhibition Assay (Example 2); assay type: biochemical; details: ADP-Glo, 10 μM ATP; read-out: ADP Glo Enzymatic GRK2 Assay: IC50 (nM) (Example 2)
T1 sequence (P25098 1-689): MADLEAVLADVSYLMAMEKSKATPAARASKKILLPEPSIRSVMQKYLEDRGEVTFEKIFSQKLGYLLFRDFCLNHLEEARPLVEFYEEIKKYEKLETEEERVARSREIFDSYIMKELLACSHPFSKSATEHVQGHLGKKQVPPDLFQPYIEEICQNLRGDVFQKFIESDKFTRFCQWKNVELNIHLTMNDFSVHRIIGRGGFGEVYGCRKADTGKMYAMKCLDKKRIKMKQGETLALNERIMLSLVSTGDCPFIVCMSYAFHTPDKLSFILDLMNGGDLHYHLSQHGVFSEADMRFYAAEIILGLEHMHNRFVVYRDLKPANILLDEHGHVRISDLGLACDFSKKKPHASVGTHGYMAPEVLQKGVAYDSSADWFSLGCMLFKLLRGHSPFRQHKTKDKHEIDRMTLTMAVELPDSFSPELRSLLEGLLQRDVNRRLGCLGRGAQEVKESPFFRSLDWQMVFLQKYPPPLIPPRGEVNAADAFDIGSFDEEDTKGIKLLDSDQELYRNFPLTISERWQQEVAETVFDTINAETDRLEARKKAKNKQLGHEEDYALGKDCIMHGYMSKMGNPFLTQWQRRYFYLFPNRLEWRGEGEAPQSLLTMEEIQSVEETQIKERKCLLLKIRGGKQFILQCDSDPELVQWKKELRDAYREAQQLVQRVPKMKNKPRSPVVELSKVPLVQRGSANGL
Method: Assay: GRK2 (7.5 nM) was incubated with ATP (10 μM) and GRKtide (0.3 mg/mL) in 5 μL of assay buffer (see above) for 180 min at room temperature. HTS was performed using 1 μM compound. Compounds were dissolved in 100% DMSO, serially diluted tree-fold from 100 μM concentration to 46 nM and transferred (50 nL) into assay ready plate.
Materials: GRK2 was purchased from SignalChem (Cat #A14-10G, Lot #X645-3). Substrate GRKtide was from SignalChem (Cat #G46-58, Lot #R339-6). ADP-Glo Kinase Assay from Promega (Cat #V9102). Assay buffer consisted of 25 mM HEPES (pH7.5), 10 mM MgCl2, 0.01% Tween-20, 1 mM DDT. 384-well white plates were from Greiner […] (Item #784075).
HTS protocol: Take 384 well plate with 50 nL of compound in columns 3-22/DMSO solution 1-2,23-24. Add 2.5 μL assay buffer to columns 23 and 24 using Thermo Scientific Multidrop Combi Dispenser. Add 2.5 μL of 2× enzyme solution (15 nM in 1× assay buffer) using Thermo Scientific Multidrop Combi Reagent Dispenser to all columns except of 23 and 24. Incubate for 15 minutes. Fill plate with 2.5 μL of 2× substrate mix (20 μM ATP and 0.6 mg/mL GRKtide in 1× assay buffer) using Thermo Scientific Multidrop Combi Reagent Dispenser. Spin 15 seconds at 1000 rpm and incubate for 180 min at room temperature. Add 5 μL ADP-Glo reagent to all the wells. Spin 15 seconds at 1000 rpm and incubate for 40 min at room temperature. Add 10 μL Detection solution to all the wells. Incubate for 30 min at room temperature. Read plate in Luminescent mode on BMG PheraStar FSX (gain=3600).
Data Analysis: Data were analyzed in GraphPad Prism 8.0.2. Each HTS plate contains compounds in columns 3-22, controls (enzyme, no compound) in columns 1 and 2, and blanks (no enzyme) in columns 23 and 24. HTS percent inhibition was calculated for each compound from the signal in luminescence units and the mean of the plate controls and the mean of the plate blanks using the following equation: % Inhibition=100*(1−((signal−blank mean)/(control mean−blank mean))). At the final stage of data processing, we obtain dose-response curves, tables and SDF-files with the results of screening for each substance.

PAXF1657 KO Clone #4 = assay: 7-day cellular proliferation assay (CellTiter-Glo), PAXF1657 KO Clone #4; assay type: cell-based; details: 168 h, 7-day, read-out: 7-day proliferation assay: IC50 GeoMean (uM) [Cell Line: PAXF1657 KO Clone #4]
Outline: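 Viability by CellTiter-Glo after 7 days at 37° C., with compound-containing media replaced on day 3. Cells (500/well, RPMI1640 + 10% FBS) were PAXF1657 pairs: GRK2 overexpression vs empty vector, or CRISPR GRK2 knockout vs non-targeting clones; doses 30 μM-0.0002 μM final, 10 points, 0.3% DMSO.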

IC50 (GRK2) [nM]	Compound	IC50 (PAXF1657 KO Clone #4) [µM]
< 100	Cc1ncsc1-c1ccc(CNC(=O)[C@@H]2C[C@@H](O)CN2C(=O)[C@@H](NC(=O)COCCOCCCCCCOc2cccc(CNC(=O)c3cccc(NCc4nnc(-c5ccncn5)n4C)c3)c2)C(C)(C)C)cc1 [Compound D101]	1 to 10
< 100	Cc1ncsc1-c1ccc(CNC(=O)[C@@H]2C[C@@H](O)CN2C(=O)[C@@H](NC(=O)COCCOCCOCCOCCOCCOCCCCCCOc2cccc(CNC(=O)c3cccc(NCc4nnc(-c5ccncn5)n4C)c3)c2)C(C)(C)C)cc1 [Compound D100]	> 10
